ChEMBL document CHEMBL4732150 (J Med Chem, 2021)

What was measured:
Cytochrome P450 2C19 = Cytochrome P450 2C19 (Homo sapiens, UniProt P33261); test: Inhibition of CYP2C19 in human liver microsomes using S-mephenytoin as substrate preincubated for 10 mins in presence of NADPH generating system followed by substrate addition and measured after 20 mins by LC-MS/MS analysis; format: ADME
[1] = Tmax in Sprague-Dawley rat at 2 mg/kg, IG administered as single dose and measured upto 24 hrs by LC-MS/MS analysis; format: ADME, organism-based; conditions: in vivo, po
[2] = (§1) Drug metabolism in CD1 mouse liver microsomes assessed as 3,3-dideuterio-N-[2-(2-dimethylaminoethylamino)-4-methoxy-5-[[4-[1-(trideuteriomethyl)indol-3-yl]pyrimidin-2-yl]amino]phenyl]prop-2-enamide metabolite formation preincubated for 10 mins under shaking condition followed by NADPH generating system addition and measured up to 60 mins by LC-MS/MS analysis; format: ADME, Microsome; conditions: 1 h, time <=70 min
[3] = Half life in cynomolgus monkey liver microsomes preincubated for 10 mins under shaking condition followed by NADPH generating system addition and measured up to 60 mins by LC-MS/MS analysis
[4] = Intrinsic clearance in Beagle dog liver microsomes preincubated for 10 mins under shaking condition followed by NADPH generating system addition and measured up to 60 mins by LC-MS/MS analysis; format: ADME, Canis lupus familiaris, Microsome; conditions: 1 h, time <=70 min
[5] = Half life in CD1 mouse liver microsomes preincubated for 10 mins under shaking condition followed by NADPH generating system addition and measured up to 60 mins by LC-MS/MS analysis
[6] = (§2) Drug metabolism in Beagle dog liver microsomes assessed as 3,3-dideuterio-N-[4-methoxy-2-[methyl-[2-(methylamino)ethyl]amino]-5-[[4-[1-(trideuteriomethyl)indol-3-yl]pyrimidin-2-yl]amino]phenyl]prop-2-enamide metabolite formation preincubated for 10 mins under shaking condition followed by NADPH generating system addition and measured up to 60 mins by LC-MS/MS analysis; format: ADME, Canis lupus familiaris, Microsome; conditions: 1 h, time <=70 min
[7] = Intrinsic clearance in CD1 mouse liver microsomes preincubated for 10 mins under shaking condition followed by NADPH generating system addition and measured up to 60 mins by LC-MS/MS analysis; format: ADME, Microsome; conditions: 1 h, time <=70 min
[8] = Oral bioavailability in Sprague-Dawley rat at 2 mg/kg, IG administered as single dose and measured upto 24 hrs by LC-MS/MS analysis; format: ADME, organism-based; conditions: in vivo
in vitro = conditions: human, liver microsomes
[9] = Cmax in Sprague-Dawley rat at 2 mg/kg, iv administered as single dose and measured upto 24 hrs by LC-MS/MS analysis; format: ADME, organism-based; parameters: route intravenous, dose 2 mg/kg, time <=24; conditions: in vivo
[10] = Cmax in Sprague-Dawley rat at 6 mg/kg/day, IG and measured on day 7 by LC-MS/MS analysis; format: ADME, organism-based; parameters: route […], dose 6 mg/kg/day, time 7 day; conditions: in vivo, po
[11] = Tmax in Sprague-Dawley rat at 12 mg/kg, IG administered as single dose and measured upto 24 hrs by LC-MS/MS analysis; format: ADME, organism-based; conditions: in vivo, po
in vivo [12] = conditions: Sprague-Dawley, rat, iv, 2 mg/kg
[13] = Oral bioavailability in Sprague-Dawley rat at 6 mg/kg/day, IG administered for 7 consecutive days by LC-MS/MS analysis; format: ADME, organism-based; conditions: in vivo, time 7 day
[14] = Half life in Beagle dog liver microsomes preincubated for 10 mins under shaking condition followed by NADPH generating system addition and measured up to 60 mins by LC-MS/MS analysis
[15] = Drug metabolism in Beagle dog liver microsomes assessed as 3,3-dideuterio-N-[2-(2-dimethylaminoethylamino)-4-methoxy-5-[[4-[1-(trideuteriomethyl)indol-3-yl]pyrimidin-2-yl]amino]phenyl]prop-2-enamide metabolite formation preincubated for 10 mins under shaking condition followed by NADPH generating system addition and measured up to 60 mins by LC-MS/MS analysis; format: ADME, Canis lupus familiaris, Microsome; conditions: 1 h, time <=70 min
[16] = Cmax in Sprague-Dawley rat at 6 mg/kg/day, IG administered for 7 consecutive days by LC-MS/MS analysis; format: ADME, organism-based; parameters: route […], time 7 day, dose 6 mg/kg/day; conditions: in vivo, po
[17] = as §2, with “cynomolgus monkey” for “Beagle dog”; format: ADME, Macaca fascicularis, Microsome; conditions: 1 h, time <=70 min
[18] = Tmax in Sprague-Dawley rat assessed as AZ5104-D2 at 6 mg/kg/day, IG administered for 7 consecutive days by LC-MS/MS analysis; format: ADME, organism-based; conditions: in vivo, po, 168 h, time 7 day
in vivo [19] = conditions: Sprague-Dawley, rat, plasma, po, 6 mg/kg
in vivo [20] = conditions: Sprague-Dawley, rat, po, 12 mg/kg
[21] = Cmax in Sprague-Dawley rat at 2 mg/kg, IG administered as single dose and measured upto 24 hrs by LC-MS/MS analysis; format: ADME, organism-based; parameters: route […], dose 2 mg/kg, time <=24; conditions: in vivo, po
[22] = as §2, with “Sprague-Dawley rat” for “Beagle dog”; format: ADME, Microsome; conditions: 1 h, time <=70 min
in vivo [23] = conditions: Sprague-Dawley, rat, po, 12 mg/kg; remark: listed apart in the source
[24] = as §1, with “Sprague-Dawley rat” for “CD1 mouse”; format: ADME, Microsome; conditions: 1 h, time <=70 min
[25] = Intrinsic clearance in Sprague-Dawley rat liver microsomes preincubated for 10 mins under shaking condition followed by NADPH generating system addition and measured up to 60 mins by LC-MS/MS analysis; format: ADME, Microsome; conditions: 1 h, time <=70 min
[26] = Intrinsic clearance in human liver microsomes preincubated for 10 mins under shaking condition followed by NADPH generating system addition and measured up to 60 mins by LC-MS/MS analysis; format: ADME, Microsome; conditions: 1 h, time <=70 min
[27] = Drug metabolism in Sprague-Dawley rat liver microsomes assessed as 3,3-dideuterio-N-[4-methoxy-2-(methylamino)-5-[[4-[1-(trideuteriomethyl)indol-3-yl]pyrimidin-2-yl]amino]phenyl]prop-2-enamide metabolite formation preincubated for 10 mins under shaking condition followed by NADPH generating system addition and measured up to 60 mins by LC-MS/MS analysis; format: ADME, Microsome; conditions: 1 h, time <=70 min

Cytochrome P450 2C19, sequence (P33261 whole entry): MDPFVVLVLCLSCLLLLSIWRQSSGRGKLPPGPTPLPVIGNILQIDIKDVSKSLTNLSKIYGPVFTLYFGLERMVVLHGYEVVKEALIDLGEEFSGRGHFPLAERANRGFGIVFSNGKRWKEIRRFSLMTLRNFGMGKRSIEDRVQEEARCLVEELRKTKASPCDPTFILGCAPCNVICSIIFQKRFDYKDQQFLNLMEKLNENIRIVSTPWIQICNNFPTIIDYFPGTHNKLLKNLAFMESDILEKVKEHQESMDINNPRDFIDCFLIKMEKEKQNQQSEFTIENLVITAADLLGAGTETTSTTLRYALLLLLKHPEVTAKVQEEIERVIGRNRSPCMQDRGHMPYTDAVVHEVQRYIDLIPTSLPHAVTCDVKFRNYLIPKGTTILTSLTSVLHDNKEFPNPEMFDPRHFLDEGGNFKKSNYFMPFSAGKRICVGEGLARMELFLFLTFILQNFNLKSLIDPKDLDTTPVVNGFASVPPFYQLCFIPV

For `CS(=O)(=O)O.[2H]C([2H])=CC(=O)Nc1cc(Nc2nccc(-c3cn(C([2H])([2H])[2H])c4ccccc34)n2)c(OC)cc1N(C)CCN(C)C`, the IC50 (Cytochrome P450 2C19) was 43 µM, the Tmax [1] was 4.17 h and the Drug metabolism [2] was “Metabolite_Detected”. For the same compound, the half-life at 1 h [3] was 0.427 h, the CLint [4] was 61.3 µL/min/mg and the half-life at 1 h [5] was 0.395 h. The Drug metabolism [6] was “Metabolite_Detected”, the CLint [7] was 58.6 µL/min/mg and the bioavailability [8] was 41.2%. It also gave a half-life at 1 h (in vitro) of 2.4 h, a Cmax [9] of 277 nM and a Cmax [10] of 180 nM. It also gave a Tmax [11] of 5 h, a half-life at 24 h (in vivo [12]) of 5.4 h and a bioavailability [13] of 29.6%. For the same compound, the half-life at 1 h [14] was 0.377 h, the Drug metabolism [15] was “Metabolite_Detected” and the Cmax [16] was 113 nM. For the same compound, the Drug metabolism [17] was “Metabolite_Detected”, the Tmax [18] was 6.8 h and the half-life at 168 h (in vivo [19]) was 3.27 h. The CL/F at 24 h (in vivo [20]) was 248 mL/min/kg, the Cmax [21] was 46.7 nM and the Drug metabolism [22] was “Metabolite_Detected”. The half-life at 24 h (in vivo [23]) was 4.04 h, the Drug metabolism [24] was “Metabolite_Detected” and the CLint [25] was 40 µL/min/mg. The CLint [26] was 9.6 µL/min/mg and the Drug metabolism [27] was “Metabolite_Detected”.
